The record followed here is ChEMBL document CHEMBL4177717, “7-Methylguanosine monophosphate analogues with 5'-(1,2,3-triazoyl) moiety: Synthesis and evaluation as the inhibitors of cNIIIB nucleotidase” (Bioorg Med Chem, 2018).

Calls of active or inactive are those of the source. The rule behind the calls is not given here.

The target in data set [1] is T1, 7-methylguanosine phosphate-specific 5'-nucleotidase (Homo sapiens) (UniProt Q969T7).
T1 sequence (whole entry): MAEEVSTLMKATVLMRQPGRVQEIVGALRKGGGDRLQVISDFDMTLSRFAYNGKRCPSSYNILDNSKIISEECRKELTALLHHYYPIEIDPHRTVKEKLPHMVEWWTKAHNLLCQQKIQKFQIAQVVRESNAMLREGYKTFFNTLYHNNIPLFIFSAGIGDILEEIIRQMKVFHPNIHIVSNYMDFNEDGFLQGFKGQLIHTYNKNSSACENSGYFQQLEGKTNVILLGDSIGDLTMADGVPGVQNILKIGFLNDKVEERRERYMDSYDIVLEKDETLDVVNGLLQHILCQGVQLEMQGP
In words: Inhibition of recombinant His6/SUMO-tagged human cN3B (1 to 300 residues) expressed in Escherichia coli BL21(DE3) RIL assessed as reduction in dephosphorylation of m7GMP substrate at 200 uM after 45 mins by malachite green dye based assay relative to control.

Data set [2] is described as follows: Chemical stability of the compound in pH 6 to 8 PBS at 100 uM after 24 hrs by RP-HPLC analysis. It counts as physicochemical. The settings on record: buffer, pH 6, 24 h.
Data set [3] concerns the target T1, 7-methylguanosine phosphate-specific 5'-nucleotidase (Homo sapiens). In words: Substrate activity at recombinant His6/SUMO-tagged human cN3B (1 to 300 residues) expressed in Escherichia coli BL21(DE3) RIL assessed as compound dephosphorylation at 100 uM up to 150 mins by HPLC method.
Data set [4] in a line: Chemical stability of the compound in pH >8 solution at 100 uM after 24 hrs by RP-HPLC analysis. In kind it is physicochemical.
Data set [5] deals with T1, 7-methylguanosine phosphate-specific 5'-nucleotidase (Homo sapiens). Briefly: Activation of recombinant His6/SUMO-tagged human cN3B (1 to 300 residues) expressed in Escherichia coli BL21(DE3) RIL assessed as increase in dephosphorylation of m7GMP substrate at 100 uM after 45 mins by malachite green dye based assay.
Data set [6] has the same target. Briefly: Inhibition of recombinant His6/SUMO-tagged human cN3B (1 to 300 residues) expressed in Escherichia coli BL21(DE3) RIL assessed as reduction in dephosphorylation of m7GMP substrate at 200 uM after 45 mins by HPLC method relative to control.
The target is the same in data set [7]. Briefly: Activation of recombinant His6/SUMO-tagged human cN3B (1 to 300 residues) expressed in Escherichia coli BL21(DE3) RIL assessed as increase in dephosphorylation of m7GMP substrate at 200 uM after 45 mins by HPLC method.
For data set [8], the target named is Eukaryotic translation initiation factor 4E (Mus musculus, UniProt P63073). Briefly: Inhibition of fluorescein-labeled m7GDPC4H5 binding to mouse eIF4E (28 to 217 residues) by MST method. The settings on record: read-out: Kd(app).
Sequence of Eukaryotic translation initiation factor 4E (Mus musculus, UniProt P63073) (P63073 whole entry, the tested form may be a part): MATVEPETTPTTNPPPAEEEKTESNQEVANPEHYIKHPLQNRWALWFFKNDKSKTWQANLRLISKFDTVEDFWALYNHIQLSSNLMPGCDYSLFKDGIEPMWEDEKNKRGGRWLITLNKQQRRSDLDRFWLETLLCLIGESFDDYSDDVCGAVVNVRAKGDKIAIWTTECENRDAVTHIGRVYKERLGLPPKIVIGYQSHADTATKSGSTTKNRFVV
The species named for data set [9] is Homo sapiens. In words: Selectivity ratio of IC50 for human DCPS to IC50 for recombinant His6/SUMO-tagged human cN3B (1 to 300 residues) expressed in Escherichia coli BL21(DE3) RIL.
Data set [10] deals with Eukaryotic translation initiation factor 4E (Homo sapiens, UniProt P06730). In words: Inhibition of eIF4E (unknown origin).
Sequence of Eukaryotic translation initiation factor 4E (Homo sapiens, UniProt P06730) (P06730 whole entry): as the sequence (P63073 whole entry, the tested form may be a part) above, with T12P, P16T, A17T, D174E counted along it
Data set [11] deals with T2, 7-methylguanosine phosphate-specific 5'-nucleotidase (Homo sapiens, UniProt Q969T7).
T2 sequence (Q969T7 whole entry): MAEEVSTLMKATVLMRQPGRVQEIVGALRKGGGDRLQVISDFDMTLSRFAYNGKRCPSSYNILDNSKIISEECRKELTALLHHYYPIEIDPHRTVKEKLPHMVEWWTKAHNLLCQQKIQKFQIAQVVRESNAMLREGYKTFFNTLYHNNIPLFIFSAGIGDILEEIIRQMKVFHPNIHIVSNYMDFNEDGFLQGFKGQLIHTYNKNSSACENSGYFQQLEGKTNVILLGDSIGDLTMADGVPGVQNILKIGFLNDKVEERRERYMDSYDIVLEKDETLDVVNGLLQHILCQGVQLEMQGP
Briefly: Inhibition of recombinant His6/SUMO-tagged human cN3B (1 to 300 residues) expressed in Escherichia coli BL21(DE3) RIL assessed as reduction in dephosphorylation of m7GMP substrate after 45 mins by HPLC method.

Data set [12] has as its target T3, m7GpppX diphosphatase (Homo sapiens, UniProt Q96C86).
T3 sequence (Q96C86 whole entry): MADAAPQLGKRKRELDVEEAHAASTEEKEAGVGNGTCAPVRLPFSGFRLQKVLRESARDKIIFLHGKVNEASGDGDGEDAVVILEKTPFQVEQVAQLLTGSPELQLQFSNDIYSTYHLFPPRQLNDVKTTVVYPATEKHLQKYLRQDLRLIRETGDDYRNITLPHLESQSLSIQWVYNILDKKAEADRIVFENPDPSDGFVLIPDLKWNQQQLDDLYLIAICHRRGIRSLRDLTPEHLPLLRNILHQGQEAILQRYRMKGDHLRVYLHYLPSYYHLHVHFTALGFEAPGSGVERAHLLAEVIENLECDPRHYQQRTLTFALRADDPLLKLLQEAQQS
In words: Inhibition of human DCPS using m7GMPF as substrate after 30 mins by nucleoside 5'-fluorophosphate probe based HTS assay.

The target in data set [13] is T4, m7GpppX diphosphatase (Homo sapiens) (UniProt Q96C86).
T4 sequence (whole entry): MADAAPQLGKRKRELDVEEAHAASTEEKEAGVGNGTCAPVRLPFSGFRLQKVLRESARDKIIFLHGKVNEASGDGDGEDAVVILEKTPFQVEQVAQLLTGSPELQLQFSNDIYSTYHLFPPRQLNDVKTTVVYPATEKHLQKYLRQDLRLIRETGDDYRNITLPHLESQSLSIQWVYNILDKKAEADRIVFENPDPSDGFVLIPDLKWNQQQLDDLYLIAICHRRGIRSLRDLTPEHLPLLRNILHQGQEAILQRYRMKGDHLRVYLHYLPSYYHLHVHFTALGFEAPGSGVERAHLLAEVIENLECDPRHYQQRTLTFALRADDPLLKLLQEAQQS
Briefly: Inhibition of human DCPS using m7GMPF assessed as reduction in conversion of m7GpppG to GDP at 200 uM after 45 mins in presence of human cN3B by HPLC method.

Data set [14] has as its target T1, 7-methylguanosine phosphate-specific 5'-nucleotidase (Homo sapiens). Briefly: Inhibition of recombinant His6/SUMO-tagged human cN3B (1 to 300 residues) expressed in Escherichia coli BL21(DE3) RIL assessed as reduction in conversion of m7GMP to m7Guo at 200 uM after 45 mins in presence of human DCPS by HPLC method.
Data set [15] concerns the target T2, 7-methylguanosine phosphate-specific 5'-nucleotidase. Briefly: Inhibition of recombinant His6/SUMO-tagged human cN3B (1 to 300 residues) expressed in Escherichia coli BL21(DE3) RIL assessed as reduction in dephosphorylation of m7GMP substrate after 45 mins by malachite green dye based assay.
Substrate in data set [16]: C[n+]1cn([C@@H]2O[C@H](Cn3cc(OCP(=O)([O-])O)nn3)[C@@H](O)[C@H]2O)c2nc(N)[nH]c(=O)c21
In words: Substrate activity at recombinant His6/SUMO-tagged human cN3B (1 to 300 residues) expressed in Escherichia coli BL21(DE3) RIL assessed as compound dephosphorylation by measuring ratio of Kcat to Km up to 30 mins by malachite green dye based assay.

Substrate in data set [17]: C[n+]1cn([C@@H]2O[C@H](Cn3cc(OCP(=O)([O-])O)nn3)[C@@H](O)[C@H]2O)c2nc(N)[nH]c(=O)c21
In words: Substrate activity at recombinant His6/SUMO-tagged human cN3B (1 to 300 residues) expressed in Escherichia coli BL21(DE3) RIL assessed as compound dephosphorylation by Vmax up to 30 mins by malachite green dye based assay.

Substrate in data set [18]: C[n+]1cn([C@@H]2O[C@H](Cn3cc(OCP(=O)([O-])O)nn3)[C@@H](O)[C@H]2O)c2nc(N)[nH]c(=O)c21
Briefly: Substrate activity at recombinant His6/SUMO-tagged human cN3B (1 to 300 residues) expressed in Escherichia coli BL21(DE3) RIL assessed as compound dephosphorylation up to 30 mins by malachite green dye based assay.

Substrate in data set [19]: C[n+]1cn([C@@H]2O[C@H](Cn3cc(OCP(=O)([O-])O)nn3)[C@@H](O)[C@H]2O)c2nc(N)[nH]c(=O)c21
Briefly: Substrate activity at recombinant His6/SUMO-tagged human cN3B (1 to 300 residues) expressed in Escherichia coli BL21(DE3) RIL assessed as compound dephosphorylation by Kcat up to 30 mins by malachite green dye based assay.

Turning to `C[n+]1cn([C@@H]2O[C@H](Cn3cc(CP(=O)([O-])O)nn3)[C@@H](O)[C@H]2O)c2nc(N)[nH]c(=O)c21`, the inhibition result in data set [1] and in data set [6] was “inactive” in each case. Moreover, the Stability result in [2] is reported as “Stable”; in data set [4], “Unstable”. In addition, the result in [3], in [5] and in [7] was inactive.

For the molecule `C[n+]1cn([C@@H]2O[C@H](Cn3cc(OCP(=O)([O-])O)nn3)[C@@H](O)[C@H]2O)c2nc(N)[nH]c(=O)c21`, the Stability entry in data set [2] is reported as “Stable”; in data set [4] it was “Unstable”. In addition, the outcome in [3] and in data set [5] was Active. Besides, the inhibition (as a rule, the change of the read-out against control, counted positive when it falls) in data set [6] was “inactive”.

With `C[n+]1cn([C@@H]2O[C@H](Cn3cc(CCP(=O)([O-])O)nn3)[C@@H](O)[C@H]2O)c2nc(N)[nH]c(=O)c21`, the inhibition entry in [1] and in [6] was “inactive” in each case. Besides, the figures for the Stability entry in data set [2] and in [4] were “Stable” and “Unstable”, respectively. The outcome in [3], in data set [5] and in [7] was inactive.

Regarding `C[n+]1cn([C@@H]2O[C@H](Cn3cc(P(=O)([O-])O)nn3)[C@@H](O)[C@H]2O)c2nc(N)[nH]c(=O)c21`, the Kd in data set [8] came out at 5.9 µM. Moreover, in [9], the Ratio IC50 stood at 3. Besides, the Ki – broadly, the equilibrium dissociation constant of an inhibitor or competing ligand from its target – in [10] came to 382 µM. Moreover, the figures for the inhibition in [1] and in data set [6] were 51% and 67%, respectively. In addition, the 50% inhibitory concentration (IC50) (as a rule, the concentration needed to halve the response being measured) in [11] was 87.8 µM; in [12] it was 244 µM; in data set [15], 128 µM. Moreover, the Stability result in data set [2] is listed as “Stable”; in [4], “Unstable”. Further, in data set [3], the outcome was inactive. For the same molecule, in data set [13], the inhibition entry was “inactive”. Further, the inhibition entry in data set [14] was “Active”.

Regarding `C[n+]1cn([C@@H]2O[C@H](COP(=O)([O-])O)[C@@H](O)[C@H]2O)c2nc(N)[nH]c(=O)c21`, the IC50 in [12] was 42.2 µM. In data set [3], the result was Active.

Molecule `C[n+]1cn([C@@H]2O[C@H](COP(=O)([O-])OP(=O)(O)O)[C@@H](O)[C@H]2O)c2nc(N)[nH]c(=O)c21` displayed an IC50 in data set [12] of 1.8 µM.

B1: 7-methylguanosine phosphate-specific 5'-nucleotidase (Homo sapiens), Q969T7 (protein)
chain: MAEEVSTLMKATVLMRQPGRVQEIVGALRKGGGDRLQVISDFDMTLSRFAYNGKRCPSSYNILDNSKIISEECRKELTALLHHYYPIEIDPHRTVKEKLPHMVEWWTKAHNLLCQQKIQKFQIAQVVRESNAMLREGYKTFFNTLYHNNIPLFIFSAGIGDILEEIIRQMKVFHPNIHIVSNYMDFNEDGFLQGFKGQLIHTYNKNSSACENSGYFQQLEGKTNVILLGDSIGDLTMADGVPGVQNILKIGFLNDKVEERRERYMDSYDIVLEKDETLDVVNGLLQHILCQGVQLEMQGP
As to B1, the kcat/Km – broadly, the turnover number divided by the Michaelis constant – in [16] turned out to be 11000 M⁻¹ s⁻¹. The maximal velocity (Vmax) – broadly, the rate approached at saturating substrate – in [17] came to 1.6 µmol/min/mg. The Km (commonly the substrate concentration at which the rate is half of its maximum) in data set [18] came out at 82 µM. Moreover, the kcat – broadly, the maximal rate divided by the concentration of active sites – in data set [19] was 1.16 s⁻¹.
